Values joined by “and” are separate entries in the source; they are usually repeats but may differ in a detail not shown here. Equal entries are not always repeated. Where two headings read alike, the source gives them in different places.
Experiments:
α4β1-CS-1 = biological target: T1, α4β1-CS-1 (Homo sapiens, UniProt P05556+P13612); assay: CS-1 cell adhesion assay, Jurkat J6 cells; type: cell-based; conditions: J6 cells to CS-1; read-out: Inhibition of cell adhesion (IC50)
T1 construct: characterized in human J6 cells which express VLA-4; endogenous in cells; host or cells: Jurkat J6 cells (human lymphoblast cell line)
Experimental: (§1) Jurkat J6 cells (human lymphoblast cell line) were grown as a suspension culture in RPMI 1640 supplemented with FCS (10%) and glutamine (2 mM). RPMI8866 cells (human B lymphoid cell line) were grown as a suspension culture in RPMI 1640 supplemented with FCS (10%) and glutamine (2 mM). RBL-2H3 cells (rat basophilic cell line) were cultured in Eagle's MEM plus Earles salts supplemented with 2 mM L-glutamine, 1 mM sodium pyruvate, 1× non-essential amino acids, 1 mM Na pyruvate 10% heat inactivated foetal calf serum.
Polystyrene 96-well microtitre plates were coated with CS-1 (connecting segment 1, a cell attachment domain of fibronectin) at a concentration of 0.01 mg/mL in bicarbonate buffer overnight at 4° C. The solution was aspirated and the plates washed twice with PBS. The plates were then incubated at room temperature in the presence of 3% BSA for 60 min, ‘flicked’ to expel the BSA and washed twice in bicarbonate buffer. J6 or RPMI cells (as required) were labelled with the fluorescent dye BCECF-AM (10 μM and 6×10^6 cells/mL) for 10 min at 37° C. before the excess was removed by centrifugation at 500 g for 5 min and the cells resuspended at a cell concentration of 1.2×10^7 cells/mL in HBSS. Equal volumes of HBSS containing the compound of formula I (over concentration range 19.0 pM to 5 μM) and cells were added to the CS-1 coated plates. […] The plates were counted in a Wallac Viktor.

integrin α4 = biological target: T2, integrin α4 (Homo sapiens, UniProt P13612); assay: IC50/IC90 concentrations and required tissue levels quoted in FIG. 6 legend
T2 sequence (P13612 34-1032): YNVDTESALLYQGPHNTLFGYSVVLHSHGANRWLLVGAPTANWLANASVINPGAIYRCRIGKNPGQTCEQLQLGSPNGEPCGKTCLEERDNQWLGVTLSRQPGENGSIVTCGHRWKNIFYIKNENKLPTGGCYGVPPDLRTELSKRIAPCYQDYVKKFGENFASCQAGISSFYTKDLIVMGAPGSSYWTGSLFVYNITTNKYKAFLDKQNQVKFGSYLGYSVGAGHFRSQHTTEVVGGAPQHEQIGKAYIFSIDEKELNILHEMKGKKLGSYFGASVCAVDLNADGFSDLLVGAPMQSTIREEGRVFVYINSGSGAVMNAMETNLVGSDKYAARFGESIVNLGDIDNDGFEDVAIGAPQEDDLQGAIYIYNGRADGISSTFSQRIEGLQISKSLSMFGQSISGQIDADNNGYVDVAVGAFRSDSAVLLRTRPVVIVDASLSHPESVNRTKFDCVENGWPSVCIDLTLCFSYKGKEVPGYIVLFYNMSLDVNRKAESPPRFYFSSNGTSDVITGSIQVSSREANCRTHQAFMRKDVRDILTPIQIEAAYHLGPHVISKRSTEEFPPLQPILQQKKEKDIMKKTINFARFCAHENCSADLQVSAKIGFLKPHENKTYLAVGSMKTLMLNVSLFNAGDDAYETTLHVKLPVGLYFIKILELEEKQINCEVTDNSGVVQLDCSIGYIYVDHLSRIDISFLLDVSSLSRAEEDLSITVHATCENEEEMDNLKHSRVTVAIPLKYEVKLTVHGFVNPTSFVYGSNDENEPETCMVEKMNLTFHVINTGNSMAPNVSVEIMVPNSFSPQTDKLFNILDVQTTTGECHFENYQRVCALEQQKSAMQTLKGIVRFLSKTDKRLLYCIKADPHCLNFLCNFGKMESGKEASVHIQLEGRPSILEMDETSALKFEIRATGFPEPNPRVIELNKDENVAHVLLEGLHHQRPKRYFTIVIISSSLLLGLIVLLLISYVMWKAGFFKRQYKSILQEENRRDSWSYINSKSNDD

Human α4β1 = biological target: T3, Human α4β1 (Homo sapiens, UniProt P05556+P13612); assay: J6 saturation binding assay (filtration) with [3H]GW559090; conditions: [3H]GW559090, J6 cells; geometric mean and 95% CL, 4 experiments
T3 construct: characterized in human J6 cells which express VLA-4; endogenous in cells; host or cells: Jurkat J6 cells (human lymphoblast cell line)
Experimental: as §1
Binding of the compound of formula I was characterized in human J6 cells which express VLA-4. J6 cells were harvested by centrifugation for 5 minutes at 500 g and resuspended in assay buffer (50 mM HEPES, pH 7.5, 100 mM NaCl, 2 mM glucose, 1 mM MnCl2). Each well contained 1×10^6 cells and either 10 μM cold GW559090, to define the NSBs (non-specific binding), or buffer. […] Bound [3H]GW559090 was separated from free by rapid vacuum filtration through pre-soaked Whatman GF/B filters, followed by three washes in ice-cold buffer, scintillant was then added to filter discs and disintegrations per minute measured on a Beckman Scintillation counter. […] GW559090 added for each concentration of the saturation curve was measured by counting disintegrations from a 50 μL aliquot of the label dilution range.

Rat α4β1 = biological target: T4, Rat α4β1 (Rattus norvegicus, UniProt D3ZMQ3+P49134); assay: Saturation binding assay in RBL-2H3 cells (SPA); conditions: [3H]GW559090, RBL-2H3 cells
T4 construct: rat RBL-2H3 cells which express rat α4β1; endogenous in cells; host or cells: RBL-2H3 cells (rat basophilic cell line)
Experimental: as §1
The assay buffer contained 50 mM HEPES, 100 mM NaCl, 1 mM MnCl2, pH 7.5 (with NaOH). WGA SPA beads were used at 1 mg/well. Cells were harvested and resuspended in assay buffer and 1 million cells were added per well in a white bottomed plate. Cold GW559090 to give a final assay concentration of 20 μM (to define nonspecific binding) or buffer alone were added and then [3H] GW559090 across a concentration range across the plate was added (nominal [3H] GW559090 concentration range was 0.01 to 200 nM). The final assay volume was 250 μL. The plate was then incubated at 37° C. for 2 h. Disintegrations were counted by scintillation (from the WGA SPA beads) in a Wallac Microbeta plate reader.
The actual amount of [3H] GW559090 added for each concentration of the saturation curve was measured by counting disintegrations per minute from a 50 μL aliquot of the label dilution range.

T3 sequence (P05556 21-798, one chain of several): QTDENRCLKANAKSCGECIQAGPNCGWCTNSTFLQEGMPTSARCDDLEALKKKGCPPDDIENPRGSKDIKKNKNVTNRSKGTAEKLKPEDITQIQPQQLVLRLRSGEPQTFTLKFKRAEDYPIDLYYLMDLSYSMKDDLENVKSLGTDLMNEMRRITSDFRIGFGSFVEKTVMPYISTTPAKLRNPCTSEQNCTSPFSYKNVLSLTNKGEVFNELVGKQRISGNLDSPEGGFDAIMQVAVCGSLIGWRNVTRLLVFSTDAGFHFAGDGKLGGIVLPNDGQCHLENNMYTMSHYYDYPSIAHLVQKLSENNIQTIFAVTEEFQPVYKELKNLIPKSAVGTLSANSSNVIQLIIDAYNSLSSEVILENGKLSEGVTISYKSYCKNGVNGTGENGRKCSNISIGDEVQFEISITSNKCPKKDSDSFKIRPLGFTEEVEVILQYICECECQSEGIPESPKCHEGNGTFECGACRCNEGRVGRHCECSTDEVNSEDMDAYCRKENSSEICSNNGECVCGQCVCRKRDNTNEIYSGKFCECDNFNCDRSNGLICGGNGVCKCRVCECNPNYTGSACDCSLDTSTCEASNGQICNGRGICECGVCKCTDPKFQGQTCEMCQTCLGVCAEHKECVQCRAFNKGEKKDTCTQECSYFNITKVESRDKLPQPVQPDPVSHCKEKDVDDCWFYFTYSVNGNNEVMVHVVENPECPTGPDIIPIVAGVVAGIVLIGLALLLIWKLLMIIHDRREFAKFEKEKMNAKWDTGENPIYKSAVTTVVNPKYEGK
T1 sequence (P05556 21-798, one chain of several): as above
T4 sequence (D3ZMQ3 1-1036): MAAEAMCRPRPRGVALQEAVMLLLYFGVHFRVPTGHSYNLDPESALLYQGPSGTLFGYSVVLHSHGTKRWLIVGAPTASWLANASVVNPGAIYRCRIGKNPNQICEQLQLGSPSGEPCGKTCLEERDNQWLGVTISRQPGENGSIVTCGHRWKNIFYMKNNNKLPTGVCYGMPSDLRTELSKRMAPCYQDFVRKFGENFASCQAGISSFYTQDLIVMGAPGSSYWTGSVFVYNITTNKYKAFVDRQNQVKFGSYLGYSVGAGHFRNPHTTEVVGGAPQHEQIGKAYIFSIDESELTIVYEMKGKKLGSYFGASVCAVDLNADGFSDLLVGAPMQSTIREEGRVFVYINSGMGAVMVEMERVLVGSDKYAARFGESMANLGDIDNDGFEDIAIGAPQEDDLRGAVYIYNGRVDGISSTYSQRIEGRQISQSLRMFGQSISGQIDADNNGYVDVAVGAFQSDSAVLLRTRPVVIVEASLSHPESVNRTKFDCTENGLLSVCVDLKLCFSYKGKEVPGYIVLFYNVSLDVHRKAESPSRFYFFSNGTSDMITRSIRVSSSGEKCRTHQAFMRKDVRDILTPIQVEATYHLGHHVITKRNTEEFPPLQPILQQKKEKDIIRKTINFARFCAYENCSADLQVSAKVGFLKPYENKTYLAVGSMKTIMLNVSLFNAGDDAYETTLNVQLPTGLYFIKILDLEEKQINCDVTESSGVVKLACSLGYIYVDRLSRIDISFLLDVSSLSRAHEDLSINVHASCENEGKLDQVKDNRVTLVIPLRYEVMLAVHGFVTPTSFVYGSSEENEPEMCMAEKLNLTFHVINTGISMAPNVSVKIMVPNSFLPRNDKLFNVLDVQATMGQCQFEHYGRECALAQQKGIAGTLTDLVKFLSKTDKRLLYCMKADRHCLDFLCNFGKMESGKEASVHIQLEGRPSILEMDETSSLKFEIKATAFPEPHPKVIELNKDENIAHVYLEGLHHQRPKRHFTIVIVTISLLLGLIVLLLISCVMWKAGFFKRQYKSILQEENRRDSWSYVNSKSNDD
T4 sequence (P49134 21-799): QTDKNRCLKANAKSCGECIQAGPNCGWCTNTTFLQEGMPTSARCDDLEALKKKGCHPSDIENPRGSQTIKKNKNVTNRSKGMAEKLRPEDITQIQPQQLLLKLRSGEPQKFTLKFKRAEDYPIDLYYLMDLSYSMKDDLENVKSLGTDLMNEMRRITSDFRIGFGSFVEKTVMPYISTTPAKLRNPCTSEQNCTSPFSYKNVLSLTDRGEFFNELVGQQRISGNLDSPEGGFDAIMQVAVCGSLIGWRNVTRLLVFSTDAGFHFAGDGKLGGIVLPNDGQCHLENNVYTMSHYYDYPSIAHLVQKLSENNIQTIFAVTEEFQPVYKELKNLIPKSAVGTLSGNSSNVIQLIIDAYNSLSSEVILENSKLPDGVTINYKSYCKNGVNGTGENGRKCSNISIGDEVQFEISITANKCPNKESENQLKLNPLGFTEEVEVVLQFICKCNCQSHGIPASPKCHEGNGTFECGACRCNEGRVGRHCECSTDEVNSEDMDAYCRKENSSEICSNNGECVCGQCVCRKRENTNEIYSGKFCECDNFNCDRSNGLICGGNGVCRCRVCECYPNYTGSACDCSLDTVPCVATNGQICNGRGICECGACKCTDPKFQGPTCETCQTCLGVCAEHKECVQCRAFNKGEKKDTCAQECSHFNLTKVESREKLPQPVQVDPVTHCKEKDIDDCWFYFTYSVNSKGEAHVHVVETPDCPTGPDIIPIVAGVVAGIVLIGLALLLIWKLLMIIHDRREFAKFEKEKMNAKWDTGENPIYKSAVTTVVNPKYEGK

SMILES: Cc1ccccc1OCC(=O)N[C@@H](CC(C)C)C(=O)N[C@@H](Cc1ccc(OC(=O)N2CCC(C(N)=O)CC2)cc1)C(=O)O [GW559090, (2S)-3-[4-({[4-(Aminocarbonyl)-1-piperidinyl]carbonyl}oxy)phenyl]-2-[((2S)-4-methyl-2-{[2-(2-methylphenoxy)acetyl]amino}pentanoyl)amino]propanoic acid]
- IC50 (α4β1-CS-1): 8.04 nM
- IC50 (integrin α4; FIG. 6 legend, read-out: 1050 concentration (converted)): ~8 nM and ~8.38 nM
- IC90 (integrin α4; FIG. 6 legend, read-out: IC90 concentration): ~80 nM and ~0.048 µg/mL
- Approximate tissue level required to achieve the 1050 concentration (integrin α4; if protein binding is 98%): ~400 nM and ~240 ng/mL
- IC90 (integrin α4; if protein binding is 98%, read-out: Approximate tissue level required to achieve the IC90 concentration): ~4 µM and ~2.4 µg/mL
- Kd (Human α4β1): 0.19 nM
- Kd (Rat α4β1): 1.04 nM

— US10413535B2, “Pharmaceutical compositions comprising an integrin ALPHA4 antagonist for use in treating ocular inflammatory conditions” (AXEROVISION, INC., priority 2015, dated 2019)
